Read-outs that look alike come from different tables or passages of the source.
Experiments:
Tlp2 [1] = biological target: T1, Tlp2 (Campylobacter jejuni, UniProt Q0PBZ3); assay: biochemical; format: binding
Experimental: (§1) His-tagged proteins (Tlp2, -3, and -4) were prepared as previously described ([11]) DNA segments encoding the periplasmic sensory domains (33 to 286 amino acids) of Tlp2 and (38 to 297 amino acids) of Tlp4 were amplified (see Table S7), ligated into pGEM-T Easy (Promega) and subcloned into pET-19b (Novagen) (see Table S6). Recombinant proteins were expressed in E. coli BL21(DE3) using 1 mM IPTG (isopropyl-β-D-thiogalactopyranoside) and purified using His-select-nickel chromatography as described previously ([8], [11]). The purity of the proteins was confirmed by SDS-PAGE and Western blot analysis with anti-His antibodies (Bio-Rad). Protein concentrations were determined using a NanoDrop spectrophotometer (Thermo Fisher).
(§2) Surface plasmon resonance (SPR) experiments were performed as described previously ([10], [11]) with the following modifications. Briefly, purified proteins were diluted to 0.15 μM in sodium acetate (pH 4.0) and immobilized onto an active flow cell of a CM5 sensor chip with a flow rate of 5 μL/min for 7 min of contact time using a standard amine coupling protocol. Immobilized protein levels for all three proteins ranged from 6028.3 to 9779.3 response units (RU) providing a minimum expected response maximum (RMax) between 20 and 50 RU for the small molecules tested. […] All ligands were prepared in PBS (pH 7.2) and serially diluted from 0.2 to 0.0125 mM. A 10-min dissociation period was allocated after the introduction of each analyte. SPR experiments were performed in single-cycle kinetics mode using the BIAcore S200 biosensor system (Cytiva) at 25°C in PBS (pH 7.2) at a flow rate of 30 μL/min. The equilibrium dissociation constant (KD) for each analyte was determined using BIAcore S200 Evaluation software with a report point 4 s after the injection stop to account for the bulk transfer of the small molecule against a large amount of immobilized protein (as shown in Fig. S5).

Tlp4 [2] = biological target: T2, Tlp4 (Campylobacter jejuni, UniProt Q0PBP3); assay: biochemical; format: binding
T2 sequence (Q0PBP3 entry or part of it): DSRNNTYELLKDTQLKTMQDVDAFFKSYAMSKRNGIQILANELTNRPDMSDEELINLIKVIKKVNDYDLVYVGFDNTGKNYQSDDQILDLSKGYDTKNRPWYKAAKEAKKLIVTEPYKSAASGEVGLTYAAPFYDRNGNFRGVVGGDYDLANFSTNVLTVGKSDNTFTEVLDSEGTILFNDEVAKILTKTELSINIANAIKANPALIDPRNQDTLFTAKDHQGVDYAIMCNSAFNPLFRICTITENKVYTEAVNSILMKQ
Experimental: as §1, §2

Tlp2 [3] = biological target: T1, Tlp2; format: binding; conditions: yes/no binding
Experimental: (§3) Glycan (>400 monosaccharides or complex glycans) and small molecule arrays containing amino acids and salts were performed as described previously by Day et al. ([67]). Briefly, 1 μg of purified recombinant protein was complexed with anti-His antibody (Cell Signaling Technology) and rabbit anti-mouse/goat anti-rabbit Alexa 555-IgG (Thermo Scientific) at a molar ratio of 1:0.5:0.25 and then incubated on the array for […] in phosphate-buffered saline (PBS). The array slides were scanned at 488/520 nm and analyzed using InnoScan 1100 with MAPIX software. All arrays were performed in triplicate with a total of 12 data points for each glycan tested; the complete data set and MIRAGE (i.e., minimum information regarding a glycomics experiment) results are shown in Tables S3 and S8.
(§4) Table S8 - Supplementary glycan microarray document based on M IRAGE guidelines. D O I:
(§5) Classification Guidelines
(§6) 1. Sample: Glycan Binding Sample
(§7) Origin: Helicobacter pylori SS1; produced as a recombinant His - tagged protein in E.
(§8) The preparation of Tlp2,3, and 4 is explained in the Materials and Methods section:
(§9) Expression and purification of the periplasmic domain of Tlp2,3, and 4.
(§10) Sample Sample is a His Tagged protein containing only the periplasmic receptor domain of the modifications full length Tlp2,3, and 4transmembrane protein.
(§11) Please see Materials and Methods: Tlps 2/3/4 bind to a range of ligands, including […]
(§12) Proteins were complexed with mouse anti- his antibody, with secondary and tertiary AlexaFluor555 antibodies (rabbit anti-mouse, goat anti-rabbit) at a molar ratio of 4:2:1.
(§13) The protein/antibody complex was incubated on ice for 10 mins prior to placing on the Assay protocol array. Arrays were performed with 1 µg of complexed protein incubated on the array for 20 min. Arrays were then washed 3 times in Array PBS (PBS + 2mM MgCl2 + 2mM CaCl2) then dried by centrifugation for 3 min at 300 x g . Scanning was performed us ing an Innopsys InnoScan 1100AL and analyzed using Mapix (Innopsys). Yes/no binding was determined by six positive replicate spots in three replicate experiments. Positive […]
(§14) Glycan Glycans in this study are listed in Table S2 and is a published library in doi:
(§15) Glycans were prepared in one of two ways for printing:
(§16) Glycan 1. Glycans (with IDs in number/letter format; e.g. 1A, 4C, 7K) were sourced modifications commercially from Dextra Laboratories, Elicityl and Carbosythn and were made into glycoamines using the protocol published in Day et al 2009 (doi:
(§17) Glycan arrays: We only use glycan arrays as a yes/no binding tool. Due to this we look only at binding that is unambiguously above background vs lack of binding above background. Average background + 3x standard deviation of the background of 20 sets of 4 spots of DMF:DMSO only spots is applied to determine if binding observed is […]
(§18) Only spots with values equal to or greater than this value were considered as binding from data of any tested slide. These values are slide […]
(§19) Data Small molecule arrays: We only use amino acid arrays as a yes/no binding tool. Due interpretation to this we look only at binding that is unambiguously above background vs lack of binding above background. Average background + 3x standard deviation of the background of 6 spots of PBS + 2% glycerol only spots is applied to determine if […]
(§20) Only spots with values equal to or greater than this value were considered as binding from data of any tested slide. These values are slide dependent. […]

Tlp4 [4] = biological target: T2, Tlp4; format: binding; conditions: yes/no binding
Experimental: as §3, §4, §5, §6, §7, §8, §9, §10, §11, §12, §13, §14, §15, §16, §17, §18, §19, §20

Tlp3 = Tlp3 (Campylobacter jejuni, UniProt Q0P864); assay: Glycan/small molecule arrays with Tlp3; conditions: yes/no binding
Chain of Tlp3 (Q0P864 entry or part of it): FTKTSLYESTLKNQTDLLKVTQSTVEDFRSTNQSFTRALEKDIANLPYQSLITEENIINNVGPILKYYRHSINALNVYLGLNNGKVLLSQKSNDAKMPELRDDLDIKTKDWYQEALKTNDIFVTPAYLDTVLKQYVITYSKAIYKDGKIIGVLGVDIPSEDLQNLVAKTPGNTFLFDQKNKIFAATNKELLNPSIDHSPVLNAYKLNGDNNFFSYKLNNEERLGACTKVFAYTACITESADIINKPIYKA
Experimental: as §3, §4, §5, §6, §7, §8, §9, §10, §11, §12, §13, §14, §15, §16, §17, §18, §19, §20

Tlp3^LBD K149A = Tlp3^LBD K149A (Campylobacter jejuni, UniProt Q0P864, K149A); assay: biochemical
Chain of Tlp3^LBD K149A (Q0P864 41-290 K149A): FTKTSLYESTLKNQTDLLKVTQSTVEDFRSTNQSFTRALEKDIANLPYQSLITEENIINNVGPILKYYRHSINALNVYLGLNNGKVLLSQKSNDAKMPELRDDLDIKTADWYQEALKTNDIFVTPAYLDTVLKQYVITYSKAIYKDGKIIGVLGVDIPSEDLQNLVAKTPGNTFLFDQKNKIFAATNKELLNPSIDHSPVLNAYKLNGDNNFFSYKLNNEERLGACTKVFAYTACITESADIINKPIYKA

Tlp3^LBD W151A = Tlp3^LBD W151A (Campylobacter jejuni, UniProt Q0P864, W151A); assay: biochemical
Chain of Tlp3^LBD W151A (Q0P864 41-290 W151A): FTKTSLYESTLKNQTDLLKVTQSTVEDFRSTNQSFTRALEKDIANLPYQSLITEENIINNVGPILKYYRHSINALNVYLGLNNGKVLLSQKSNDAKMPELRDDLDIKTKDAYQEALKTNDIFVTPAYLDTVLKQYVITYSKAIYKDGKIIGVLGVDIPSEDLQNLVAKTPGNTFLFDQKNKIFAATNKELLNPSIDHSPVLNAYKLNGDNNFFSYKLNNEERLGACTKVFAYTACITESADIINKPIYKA

Tlp3^LBD D169A = Tlp3^LBD D169A (Campylobacter jejuni, UniProt Q0P864, D169A); assay: biochemical
Chain of Tlp3^LBD D169A (Q0P864 41-290 D169A): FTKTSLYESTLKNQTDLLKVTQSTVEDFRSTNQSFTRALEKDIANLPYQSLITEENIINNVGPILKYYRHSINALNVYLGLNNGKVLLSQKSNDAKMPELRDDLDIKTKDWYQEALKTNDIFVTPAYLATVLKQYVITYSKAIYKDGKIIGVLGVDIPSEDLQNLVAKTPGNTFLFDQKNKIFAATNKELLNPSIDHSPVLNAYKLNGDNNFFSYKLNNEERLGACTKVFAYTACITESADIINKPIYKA

Tlp3^LBD D170A = Tlp3^LBD D170A (Campylobacter jejuni, UniProt Q0P864); assay: biochemical
Chain of Tlp3^LBD D170A (Q0P864 41-290 T170A): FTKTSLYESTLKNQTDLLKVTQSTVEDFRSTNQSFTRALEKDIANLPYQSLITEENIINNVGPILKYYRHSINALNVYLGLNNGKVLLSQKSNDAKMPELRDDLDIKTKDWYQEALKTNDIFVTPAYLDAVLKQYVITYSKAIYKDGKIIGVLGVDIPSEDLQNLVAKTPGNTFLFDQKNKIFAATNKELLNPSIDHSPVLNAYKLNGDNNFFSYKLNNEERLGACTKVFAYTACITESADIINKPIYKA

[5] = SPR KD, mean ± SD, NB = no binding, read-out: Tlp2 Affinity
[6] = SPR KD, mean ± SD, NB = no binding, read-out: Tlp4 Affinity

T1 sequence (Q0PBZ3 entry or part of it): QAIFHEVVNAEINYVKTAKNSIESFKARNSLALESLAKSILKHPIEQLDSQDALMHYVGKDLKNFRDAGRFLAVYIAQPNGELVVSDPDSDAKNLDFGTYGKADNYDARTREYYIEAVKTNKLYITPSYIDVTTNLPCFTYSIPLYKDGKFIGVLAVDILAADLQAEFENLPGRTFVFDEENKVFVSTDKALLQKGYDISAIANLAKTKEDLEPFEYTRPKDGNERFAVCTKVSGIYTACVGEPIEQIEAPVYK

SMILES	Kd (Tlp2 [1]; [5]) [µM]	Kd (Tlp4 [2]; [6]) [µM]	binding to Tlp2 on glycan/small molecule array (Tlp2 [3])	binding to Tlp4 on glycan/small molecule array (Tlp4 [4])	binding to Tlp3 on glycan/small molecule array (Tlp3)	Kd (Tlp3^LBD K149A) [µM]	Kd (Tlp3^LBD W151A) [µM]	Kd (Tlp3^LBD D169A) [µM]	Kd (Tlp3^LBD D170A) [µM]	Kd (Tlp2 [1]) [µM]	Kd (Tlp4 [2]) [µM]
C[C@H](O)[C@@H](O)[C@@H](O)[C@H](O)C=O [Fucose]	15.5 ± 0.9	16.2 ± 2.2	interacted	interacted	interacted	63.7 ± 16.8	66.9 ± 14.6	50 ± 17.6	46.6 ± 16.1	–	–
NCCCC[C@H](N)C(=O)O [Lysine]	–	–	bound	bound	bind specifically	32.3 ± 5.3	27.3 ± 5.9	29.2 ± 4.9	14.5 ± 4.8	18.6 ± 1.5	19.7 ± 3.9
CC(=O)N[C@H]1[C@H]([C@H](O)[C@H](O)CO)OC(O)(C(=O)O)C[C@@H]1O (stereo partly drawn) [Sialic acid]	1.7 ± 0.2	0.8 ± 0.1	interacted	interacted	interacted	24 ± 6.6	17.3 ± 4.4	25.2 ± 8.5	16.6 ± 2	–	–
